# Measurements from patent US20250009790A1, “METHODS FOR INDUCING VASODILATION” (THE FLOREY INSTITUTE OF NEUROSCIENCE AND MENTAL HEALTH, priority 2021, published 2025).
# Entries after “also recorded” stand apart in the source; their conditions may differ.
# Experiments:
# [1] = biological target: T1, CGRP receptors (Rattus norvegicus, UniProt Q63118+Q9JJ74); experiment: Zinc bis(histidinate)-induced cutaneous vasodilation after CGRP receptor antagonist pre-treatment (LDF); assay type: in vivo; conditions: rat hind paw; BIBN4096 3 mg/kg i.v. pre-treatment before Zn-bis-His 3, 10 and 30 mg/kg i.v.
# T1 construct: from tissue; host or cells: live anaesthetized rat, hind-paw skin vasculature (in vivo)
# Method: (§1) Rats were anaesthetized with urethane (2 g/kg i.p.) after light anaesthesia with inhalation of 5% isoflurane. A laser Doppler probe (OxyFlo probe MSP300XP; ADI Blood Flowmeter) was placed on one hind paw (hair removed with depilatory cream). The animal was allowed to stabilize for 30 min to establish baseline parameters. A single i.v. dose of zinc bis(histidinate) was then administered at 3 mg/kg. The haemodynamic and cutaneous blood flow measurements by laser Doppler flow (LDF) were recorded continuously for 15 min. Then, the effects of 10 mg/kg and 30 mg/kg doses of zinc bis(histidinate) were tested.
# In order to better understand the effect of zinc bis(histidinate) on cutaneous blood flow, vasodilation mediated by sensory nerves was blocked by pre-treatment of the rat with a CGRP (calcitonin gene-related peptide) receptor antagonist. A dose of 3 mg/kg BIBN4096 (olcegepant, a known CGRP receptor antagonist was administered intravenously by slow infusion over 10 minutes prior to subsequent administration of zinc bis(histidinate) and measurement of cutaneous blood flow by LDF as described in Example 2.
# [2] = test system: rat hind paw; experiment: Cutaneous blood flow by laser Doppler flow in anaesthetized rat hind paw; assay type: in vivo; conditions: Zn-bis-His 3, 10 and 30 mg/kg i.v., L-His 67 mg/kg i.v.
# Method: For in vivo measurements of cutaneous blood flow, an average of 3 s consecutive values calculated every 5 s were computed by LabChart software and the data were transformed as percentage of baseline (an average of 1.5 min recording before each dose). The area under the curve (AUC) for change from baseline values was calculated in Prism 8 software. MAP, hindquarter flow and conductance were taken immediately before and every 5 min after a single dose of treatment.
# as §1
# [3] = test system: sheep during cardiopulmonary bypass; conditions: cited from earlier work
# [4] = test system: rat mesenteric arteries; experiment: Relaxation of isolated rat mesenteric arteries contracted with U46619 (myograph); assay type: cell-based; conditions: arteries contracted with thromboxane mimetic U46619
# Description: Functional in vitro protocols in isolated arteries. Human internal mammary artery and saphenous vein or a range of vessels from rats and mice (left main or anterior descending coronary arteries [250-400 μm internal diameter, i.d.], second order pulmonary interlobar arteries [300-600 μm i.d.], second or third order mesenteric arteries [200-350 μm i.d.], interlobar renal arteries [250-350 μm i.d.], saphenous arteries or veins [300-600 μm i.d.]), or the thoracic aorta were dissected and placed in ice-cold PSS-A with the following composition (mmol/L, mM): NaCl 119; KCl 4.69; MgSO4·7H2O 1.17; KH2PO4 1.18; glucose 5.5; NaHCO3 25; CaCl2·6H2O 2.5 saturated with carbogen (O2 95%; CO2 5%) at pH 7.4. In addition, rat middle cerebral (250-400 μm i.d.) and basilar (250-450 μm i.d.) arteries were used and for these vessels the PSS-A contained 1.5 mM CaCl2 to minimize the occurrence of spontaneous contractions.
# After isolation of vessels, ˜2 mm length segments of arteries were mounted in myograph chambers (Model 610M and 620M; Danish Myo Technology, Denmark) containing PSS-A at 37° C. for isometric force measurement as described previously. Contractile and relaxation responses using rat and mice isolated vessels were recorded with LabChart 7 and a PowerLab 4/30 A/D converter (AD Instruments Pty Ltd, Australia) while those including human isolated vessels were recorded with LabChart 8 (AD Instruments) and Myodaq and Myodata 2.01 (Maastricht University, Maastricht, Netherlands). To normalize the basal conditions, the vessels were passively stretched according to a normalization protocol and adjusted to a diameter setting of 90% of that determined for an equivalent transmural pressure of 100 mmHg (30 mmHg for veins). After allowing the tissues to equilibrate for 30 min, the arteries were exposed to a potassium depolarizing solution (124 mM K^+ replacing Na^+ in PSS; termed KPSS) and noradrenaline (10 μM) for 2 min (chemicals, their source and preparation are provided in the online supplement). A second exposure to KPSS solution (only) was used to provide a reference contraction.
# Five structurally dissimilar zinc delivery agents (zinc pyrithione, zinc disulfiram, clioquinol, Zn(DTSM) and zinc bis(histidinate)) were administered to rat mesenteric arteries according to the protocols above and the extent to which the arteries contracted were recorded. Acetylcholine and clioquinol were also administered and contractions recorded.
# [5] = Mean arterial pressure in anaesthetized rat (carotid artery catheter); assay type: in vivo; conditions: bolus i.v. 3, 10 and 30 mg/kg, measured for 10 minutes
# Method: In vivo blood pressure and flow measurement. Rats and mice were anaesthetized by inhalation of 5% isoflurane (in O2) followed by i.p. injection of pentobarbitone in rats (60 mg/kg; TROY Laboratories, NSW, Australia, maintained by top up doses of 10-20 mg/kg i.v.) or i.p. injection of urethane (2.5 g/kg; Sigma, maintained by top up doses of 0.05-0.1 g/kg i.v.). Animals were placed on a homeostatic blanket system to maintain body temperature at 37±1° C. Lignocaine (1% s.c.) was injected for placement of a tracheotomy tube (for mechanical ventilation), carotid artery and jugular vein catheters.
# All drug treatments were administered via the jugular vein catheter. Pulsatile blood pressure, mean arterial pressure (MAP) and heart rate (HR; beats/min) were measured via the carotid artery catheter filled with heparinized (10 U/ml; Pfizer, NY, USA) saline 0.9% and connected to a pressure transducer (Argon Medical Devices, Athens, Greece) and the output was recorded with LabChart 7 and a Powerlab 8SP (AD Instruments). […]
# An increase in cutaneous blood flow associated with vasorelaxation typically results in a decrease in arterial pressure. Mean arterial pressure in a rat after administration of zinc bis(histidine) (3 mg/kg, 10 mg/kg or 30 mg/kg) or L-histidine (67 mg/kg) was measured by a pressure transducer attached to a catheter inserted in carotid artery as described in Example 2.
# [6] = test system: ovine model of cardiopulmonary bypass; experiment: Ovine cardiopulmonary bypass with intra-operative zinc bis(histidinate) infusion; assay type: in vivo; conditions: sheep on CPB (2 h); 3, 10 and 30 mg/kg infusion i.v. every 20 min
# Description: Two merino ewes (35-50 kg bodyweight) were housed in individual metabolic cages with access to 5 litres of water and 800 g of oaten chaff daily. The sheep underwent a preparatory surgical procedure under isoflurane anaesthesia for the implantation of a transit-time flow probe around the renal artery for measurement of renal blood flow. Fibre-optic probes were inserted into the cerebral cortex, renal cortex and renal medulla for measurement of tissue perfusion, pO2 and temperature (see Calzavacca et al., 2015, Am J Physiol Regul Integr Comp Physiol 308, R832-839). Catheters were inserted into the renal and jugular veins, carotid artery and bladder. The experiments were undertaken five days later. Intra-operative analgesics and antibiotics were administered as described previously (Lankadeva et al., 2019, Kidney Int 95 1338-1346; Evans et al., 2020, Am J Physiol Regul Integr Comp Physiol 318, R206-R213; Lankadeva et al., 2021, Acta Physiologica doi.org/10.1111/apha.13596, e13596). Mean arterial pressure, renal blood flow, cerebral cortical, renal cortical and renal medullary tissue perfusion, and temperature were continuously recorded across a series of experimental periods. Arterial, mixed venous and renal venous blood samples were collected every 30 min for blood oximetry and biochemistry (ABL systems 625, Copenhagen, Denmark).
# During the first 30 minutes, sheep were awake and unrestrained in their home metabolic cage. Anaesthesia was induced with sodium thiopental (15 mg/kg) and after endotracheal intubation, maintained on isoflurane (2.0%-2.5%) via an artificial ventilator prior to cardiopulmonary bypass or via a membrane oxygenator during cardiopulmonary bypass (FiO2: 60%). This FiO2 was chosen because it is standard during cardiac surgery at the inventors affiliated clinical centre. From the onset of anaesthesia, sheep received a maintenance infusion of compound sodium lactate (2 mL/kg/h; Baxter, NSW, Australia) for the entire duration of the experiment. Once stable anaesthesia was attained, a second experimental period (30 minutes) commenced. Cardiopulmonary bypass was then achieved at a target pump flow of 80 mL/kg/min, a target MAP of 65 mmHg, and a target body temperature of 34.5° C. The prefusion circuit was primed with 300-500 mL of blood from a donor animal, 1 g cefazolin (AFT Pharmaceuticals, NSW, Australia), 50 mL mannitol (20% wt/vol Osmitrol, Baxter, NSW, Australia) and 10 000 IU heparin, made up to 1.3 L with compound sodium lactate. Metaraminol (Metaraminol Montrose, Montrose Life Sciences, NSW, Australia) was administered in boluses of ˜0.25 mg (using a 0.5 mg/mL solution) only in cases where increasing pump flow was not sufficient to attain the target mean arterial pressure during cardiopulmonary bypass. Once stable cardiopulmonary bypass was attained, the sheep was maintained for ˜2 hours before starting a zinc bis(histidinate) infusion (18 mg/ml solution made freshly in 0.45% saline solution and filtered). For the first 20 min, volume equivalent to 3 mg/kg zinc bis(histidinate) was infused, followed by 20 minute of 10 mg/kg and then 20 min of 30 mg/kg zinc bis(histidinate). Plasma was collected every 30 min following the start of anaesthesia. Zinc levels in plasma were analysed using inductively coupled plasma mass spectroscopy (ICP-MS).
# [7] = listed as Zinc bis(histidinate)
# T1 sequence (Q63118 24-464): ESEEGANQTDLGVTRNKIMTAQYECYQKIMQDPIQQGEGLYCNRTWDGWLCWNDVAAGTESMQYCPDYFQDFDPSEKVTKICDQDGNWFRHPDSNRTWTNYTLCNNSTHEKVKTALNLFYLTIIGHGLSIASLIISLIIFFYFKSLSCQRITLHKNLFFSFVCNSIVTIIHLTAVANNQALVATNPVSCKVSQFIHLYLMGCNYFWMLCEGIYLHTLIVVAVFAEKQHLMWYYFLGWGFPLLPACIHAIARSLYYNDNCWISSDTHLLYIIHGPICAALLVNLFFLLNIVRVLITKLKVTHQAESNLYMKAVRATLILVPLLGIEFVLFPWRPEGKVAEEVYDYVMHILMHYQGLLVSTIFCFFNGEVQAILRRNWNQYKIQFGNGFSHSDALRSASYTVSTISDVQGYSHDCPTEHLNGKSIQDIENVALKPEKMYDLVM
# T1 sequence (Q9JJ74 27-148): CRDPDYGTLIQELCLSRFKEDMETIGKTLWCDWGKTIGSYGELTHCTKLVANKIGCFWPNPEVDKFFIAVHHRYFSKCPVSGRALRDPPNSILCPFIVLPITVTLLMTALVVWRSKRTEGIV
compound,measurement,setting,value
"NCCCC[C@H](NC(=O)[C@@H](Cc1cc(Br)c(O)c(Br)c1)NC(=O)N1CCC(N2Cc3ccccc3NC2=O)CC1)C(=O)N1CCN(c2ccncc2)CC1 [BIBN4096, olcegepant]","Effect on zinc bis(histidinate)-induced vasodilation (area under the vasodilation curve, LDF)",[1],reduction in vasodilation; also recorded: attenuated the effect
"N[C@@H](Cc1c[nH]cn1)C(=O)O [L-histidine, reference compound]",Cutaneous blood flow (laser Doppler flux),[2],did result in the same increase
same,Cutaneous blood flow (laser Doppler flux),[2]; listed as L-His,did not cause an increase in cutaneous blood flow
C[C@H](N)[C@H](O)c1cccc(O)c1 [Metaraminol],Systemic vascular conductance,[3],increased systemic vascular conductance
CNC([S-])=NN=C(C)C(C)=NN=C([S-])NC.[Zn+2] [Zn(DTSM)],Relaxation of rat mesenteric arteries,[4],showed relaxation
Oc1c(I)cc(Cl)c2cccnc12 [clioquinol],Relaxation of rat mesenteric arteries,[4],showed relaxation
N[C@@H](Cc1c[nH]cn1)C(=O)O [histidine],Relaxation of rat mesenteric arteries,[4],did not provide the same relaxation; also recorded: little relaxation
[Zn] [zinc],Relaxation of rat mesenteric arteries,[4],minimal effects; also recorded: little relaxation
zinc bis(histidinate),Relaxation of rat mesenteric arteries,[4],showed relaxation; also recorded: greater relaxation
same,Relaxation of rat mesenteric arteries,[4]; listed as zinc-bis-histidinate,dependent on the concentration
same,Cutaneous blood flow (laser Doppler flux),[2],increased cutaneous blood flow
same,Cutaneous blood flow (laser Doppler flux),[2]; [7],caused an increase in cutaneous blood flow
same,Cutaneous blood flow (laser Doppler flux),[2]; listed as zinc bis(histidine),increased blood flow
same,Mean arterial pressure,[5],expected decrease in arterial pressure was not observed
same,Mean arterial pressure,[5]; [7],does not change mean arterial pressure
same,Cerebral cortical microcirculatory perfusion,[6],rescued
same,Renal blood flow,[6],dose-dependent improvement
same,Renal cortical microcirculatory perfusion,[6],rescued
same,Renal medullary microcirculatory perfusion,[6],rescued
same,Renal oxygen delivery,[6],dose-dependent improvement
same,Renal vascular resistance,[6],dose-dependent improvement
same,Systemic mean arterial pressure,[6],without compromising systemic mean arterial pressure
zinc disulfiram,Relaxation of rat mesenteric arteries,[4],showed relaxation
zinc pyrithione,Relaxation of rat mesenteric arteries,[4],showed relaxation
